According to patent publication US20190313638A1, “ACTIVE COMPOUND COMBINATIONS” (priority 2016, published 2019):

Assay: Log P by HPLC on reversed phase columns (EEC directive 79/831 Annex V.A8)
Assay type: physicochemical
Procedure: Measurement of Log P values was performed according to EEC directive 79/831 Annex V.A8 by HPLC (High Performance Liquid Chromatography) on reversed phase columns with the following methods:
Calibration was done with straight-chain alkan2-ones (with 3 to 16 carbon atoms) with known Log P values (measurement of Log P values using retention times with linear interpolation between successive alkanones). Lambda-max-values were determined using UV-spectra from 200 nm to 400 nm and the peak values of the chromatographic signals.

chromatographic logP ([a] LC-UV, acidic range, 0.1% formic acid in water and acetonitrile as eluent): 4.38
chromatographic logP ([b] LC-UV, neutral range, 0.001 molar ammonium acetate solution in water and acetonitrile as eluent): 4.33
SMILES: CCN(C)/C=N/c1cc(C)c(Oc2ccccc2)cc1Br [Compound (I-4), N′-(2-bromo-5-methyl-4-phenoxyphenyl)-N-ethyl-N-methylimidoformamide]
